This passage reports GI50 and TGI results from PubChem BioAssay (NCI).

Common to all, as to test: inhibition of tumour cell growth, NCI panel, 48 h
For experiment [1], the system named is K-562 leukemia.
Experiment [2] deals with ACHN renal.
The test system of experiment [3] is IGROV1 ovarian.
The test system of experiment [4] is NCI-H460 lung.
For experiment [5], the system named is A549 NSCLC.
The test system of experiment [6] is HS 578T breast.
Experiment [7] deals with SK-OV-3 ovarian.
In experiment [8] the test system is HCT-15 colon.
Experiment [9] concerns SK-MEL-2 melanoma.
Experiment [10] concerns KM12 colon.

Each structure is given as a SMILES string. “And” between values parts separate entries of the source, which are not always exact repeats. Equal values may be shown once.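 1) Cells in 96-well plates. 2) Compound, 48 h, 5 concentrations. 3) Linear interpolation between surrounding doses. 4) Unreached endpoint = highest concentration. The concentration for 50% growth inhibition is given as GI50. TGI: total growth inhibition.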

Take `COC(=O)c1cc2c(cc1Cl)SC(N(N(C)C)S(=O)(=O)c1ccc(Br)s1)=NS2(=O)=O`: the GI50 in [1] is 16.1 µM; in experiment [2] it was 24.2 µM; in experiment [3], 29 µM; in experiment [4], 22.4 µM; in experiment [5], 32 µM; in [6], 26.2 µM. The GI50 in experiment [7] is 28 µM; in [8], 18 µM; in experiment [9] it was 3.2 µM; in experiment [10] it was 24.8 µM. For the same compound, the TGI was 33.6 µM in [1]; 54.1 µM in experiment [2]; 94.3 µM in [3]; 43.9 µM in [4]; more than 100 µM in [5]; 63.5 µM in [6]. Also, the TGI in [7] is 66.7 µM; in experiment [8], 33.6 µM; in experiment [9] it was 9.66 µM; in [10], 74.4 µM.

Turning to `CC(=O)Nc1ccc(C(=O)NN2C(=O)C(Cl)C2c2ccc(Cl)cc2)cc1` (stereo unspecified), the TGI in [1] is more than 100 µM; in experiment [2] it was more than 100 µM; in experiment [3], more than 100 µM; in experiment [4], more than 100 µM; in [5], more than 100 µM; in experiment [6] it was 41.6 µM. Also, the TGI in experiment [7] was 71.9 µM; in experiment [8] it was more than 100 µM; in experiment [9], more than 100 µM; in [10], more than 100 µM.

With `C=C1C(=O)C23CC1C[C@H](OC(C)=O)[C@H]2C1(C)C(OC(C)=O)C[C@H](O)C(C)(C)[C@H]1C(=O)[C@@H]3OC(C)=O` (stereo partly specified), the TGI in experiment [1] was more than 21 µM; in experiment [2], 14.1 µM; in experiment [3] it was 25.8 µM; in experiment [4] it was 33.4 µM; in [5], 33.7 µM; in [6] it was 15.3 µM. In addition, the TGI in experiment [7] was 32 µM; in experiment [8], 11 µM; in experiment [9], 25.9 µM; in experiment [10] it was 23.8 µM.

Consider `CC(C)=CCCC(C)c1ccc(C)c2c1OCN(CC1CCNCC1)C2` (stereo unspecified), for which the GI50 in experiment [1] is 2.68 µM; in [2], 15.3 µM; in [3] it was 16.6 µM; in experiment [4], 5.36 µM; in experiment [5] it was 13 µM; in [6], 13.3 µM. Further, the GI50 in [7] is 16.7 µM; in experiment [8] it was 6.51 µM; in experiment [9], 18.2 µM; in [10], 12.3 µM. Further, the TGI in experiment [1] was 8.44 µM; in [2] it was 30 µM; in experiment [3], 32.2 µM; in experiment [4], 16.6 µM; in experiment [5], 27.8 µM; in [6], 29.9 µM. Moreover, the TGI in [7] was 31.1 µM; in experiment [8], 21.1 µM; in experiment [9], 35.5 µM; in [10], 26 µM.

On to `O=c1c2cc(Cl)ccc2oc2ccc(OCCCCCN3CCCCC3)cc12`, for which the GI50 in experiment [1] is 1.76 µM; in [2], 5.28 µM; in experiment [3], 6.77 µM; in experiment [4], 1.73 µM; in experiment [5] it was 4.78 µM; in experiment [6], 6.16 µM. Moreover, the GI50 in experiment [7] was 6.96 µM; in [8] it was 1.26 µM; in [9], 2.09 µM; in experiment [10], 2.68 µM. Moreover, the TGI in [1] was determined as 7.55 µM; in experiment [2], 11.2 µM; in experiment [3] it was 14.4 µM; in [4], 5.55 µM; in experiment [5] it was 10.9 µM; in experiment [6] it was 15.1 µM. Besides, the TGI in experiment [7] was 13.4 µM; in [8], 3.45 µM; in [9], 7.96 µM; in [10], 9 µM.

On to `Cc1cc(C)c([O-])c(CN(C)CCN(C)Cc2cc(C)cc(C)c2[O-])c1.O=C([O-])c1cccc(C(=O)[O-])n1.[Ti+4]`, for which the GI50 is 2.67 µM in [1]; 2.43 µM in experiment [2]; 3.2 µM in experiment [3]; 2.01 µM in experiment [4]; 3.18 µM in experiment [5]; 2.29 µM in experiment [6]. Also, the GI50 in experiment [7] was 3.54 µM; in [8], 3.5 µM; in experiment [10], 3.36 µM. Moreover, the TGI in experiment [1], in [2], in experiment [3], in [4], in [5] and in experiment [6] was more than 100 µM each time. The TGI in [7], in experiment [8] and in experiment [10] was more than 100 µM each time.

`CCN(CC)CC(O)CNc1ccc(NCC2CO2)c2c1C(=O)c1ccccc1C2=O` (stereo unspecified): the GI50 in [1] is 0.0135 µM; in experiment [2], 0.0514 µM; in experiment [3] it was 0.657 µM; in experiment [4], 0.39 µM; in experiment [8], 0.417 µM. The TGI in experiment [2] is 0.448 µM and 0.751 µM; in experiment [3], 5.79 µM; in experiment [4], 3.16 µM; in [5], 5.69 µM; in experiment [6], 24.1 µM; in [7], 9.64 µM. In addition, the TGI is 6.35 µM in experiment [8]; 0.785 µM and 0.839 µM in experiment [9]; 1.74 µM in experiment [10].

For the compound `CSc1nc(C)c2c(n1)SCC2`, the TGI in [1], in [2], in [3], in [4], in experiment [5] and in experiment [6] was more than 10 µM throughout. Besides, the TGI in experiment [7], in [8] and in experiment [10] was more than 10 µM throughout.

As for `COc1ccc([N+](=O)[O-])c2c(NCCCN(C)C)c3ccccc3nc12`, the TGI turned out to be 3.76 µM in experiment [1]; 0.389 µM in experiment [2]; 0.234 µM in [3]; 0.257 µM in experiment [4]; 0.895 µM in [5]; 4.29 µM in experiment [6]. Also, the TGI in experiment [7] was 2.38 µM; in [8], 1.39 µM; in experiment [9], 0.281 µM; in experiment [10], 0.509 µM.
